Laboratory results: patent US8686113B2 (priority 2009, dated 2014)
≈ marks a conversion by molar mass, not a printed value. Read-outs that look alike come from different tables or passages of the source. Non-standard residues stand in square brackets, D forms with d. Residues, ends and D or L forms follow the SMILES beside them. Hyp = O=C(O)[C@@H]1C[C@@H](O)CN1; Orn = NCCC[C@H](N)C(=O)O

What was measured:
E. coli BL21 A1 = format: cell-based, Escherichia coli
Procedure, shortened: (§1)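 Broth microdilution in 1% TSB with twofold peptide series, final 128 μg/mL to 62.5 ng/mL, against 5×10^6 bacteria/mL stock suspension added 1:1. Incubated 20 h at 37 °C, growth read by absorbance at 595 nm; MIC is the lowest concentration with no growth, determined in triplicate.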

M. luteus 10240 = assay: Growth inhibition assay (microdilution MIC); format: cell-based, Micrococcus luteus; details: 10240, 20 h
Procedure, shortened: as §1

[1] = tested on: Escherichia coli DSM 10233
Method: (§2) The minimum inhibitory concentrations (MIC) of the antimicrobial peptides and peptide derivatives were determined in microdilution assays. These used a continuous peptide dilution in sterile flat-bottomed 96-well microtiter plates (polystyrene, Greiner Bio-One GmbH, Frickenhausen, Germany) and a total volume of 100 μL per well. The aqueous peptide or peptidomimetic solutions were diluted with 1% TSB water, to obtain a final concentration of 256 μg/mL. 50 μL of the peptide or peptidomimetic solution was pipetted into the first well of each series and stirred. From this solution, 50 μL was transferred to the second well, stirred and again 50 μL was transferred to the next well, and so on. A double dilution series is obtained, beginning at 256 μg/mL in the first well to 125 ng/mL in the twelfth well. The bacteria, e.g. E. coli BL21 A1, were cultured overnight at 37° C. in nutrient broth (NB, Carl Roth GmbH+Co. KG, Karlsruhe, Germany). 50 μL of a 5×10^6 bacteria/mL suspension in 1% TSB was added to each well of the microtiter plate and thus a final concentration of the peptides or peptidomimetics from 128 μg/mL (well 1) to 62.5 ng/mL (well 12) was established in each series. The plates were incubated at 37° C. for 20 h and then the absorption was measured at 595 nm with a TECAN microtiter plate spectrophotometer (Tecan Trading AG, Mannedorf, Switzerland). The MIC values of all peptides and peptidomimetics were determined in triplicate. Sterile water was used as negative control.
The peptides shown in Table 8 were investigated for their MIC against pathogenic bacteria such as E. coli DSM 10233, K. pneumoniae DSM 681 and P. aeruginosa DSM 3227.

[2] = mouse, serum
Method: For this, the peptides and peptidomimetics were dissolved in water, mouse serum was added and the peptide concentration was adjusted to 75 μg/mL. While shaking continuously, the mixture was incubated at 37° C. After 0, 30, 60, 120, 240 and 360 minutes, in each case an aliquot was taken and mixed with 15% aqueous trichloroacetic acid (Carl Roth GmbH & Co. KG; Karlsruhe, Germany). After incubation on ice for a further 10 minutes, the precipitated serum proteins were centrifuged off (5 min, 13400 rpm, MiniSpin, Eppendorf AG, Hamburg, Germany). The supernatant was removed, neutralized with 1 mol/L aqueous sodium hydroxide solution (Fluke Chemie GmbH, Buchs, Switzerland) and stored at −20° C. until analysis.
The supernatants were analyzed by RP-HPLC with a linear acetonitrile gradient (Biosolve BV, Valkenswaard, The Netherlands) in the presence of 0.1% trifluoroacetic acid (TFA, UV-grade, Fluka Chemie GmbH, Buchs, Switzerland) as ion-pairing reagent. The fractions were co-crystallized with α-cyanohydroxycinnamic acid (Bruker Daltonik GmbH; Bremen, Germany) as matrix (5.3 mg/mL in 50% acetonitrile in 0.1% aqueous TFA) and were analyzed with a tandem mass spectrometer (MALDI-TOF/TOF-MS, 4700 Proteomics Analyzer; Applied Biosystems GmbH, Weiterstadt, Germany) in the positive-ion reflector mode. The proportion of intact peptides and their degradation products or metabolites could thus be identified and quantified at the individual time points. The control used was 25% aqueous mouse serum, which was analyzed in parallel for the same time intervals.

E. coli 045-849 SENTRY = details: 045-849 SENTRY
Method: as §2
(§3) The tests were in this case carried out in Mueller-Hinton medium (¼ concentrated), which is equivalent to 1% TSB.

E. coli ATCC BAA-457 = details: ¼ Muller-Hinton medium
Method: as §2, §3

E. coli D31 J. Wilson = details: ¼ Muller-Hinton medium
Method: as §2, §3

K. pneumoniae 012-3131 = tested on: K. pneumoniae 012-3131
Method: as §2, §3

K. pneumoniae ATCC 27799 = tested on: K. pneumoniae ATCC 27799
Method: as §2, §3

[3] = tested on: K. pneumoniae K6 ATCC 700603
Method: as §2, §3

Molecule	MIC values against E. coli (E. coli BL21 A1)	MIC E. coli BL21 A1 (E. coli BL21 A1; 1% TSB, 20 h at 37° C.)	MIC M. luteus 10240 (M. luteus 10240)	MIC E. coli DSM 10233 [1]	half-life ([2]; Half-life in 25% mouse serum, 25% aqueous mouse serum, 37° C., 75 μg/mL peptide)	half-life ([2]; half-life in 25% aqueous mouse serum, 25% serum)	MIC E. coli BL21 A1 (E. coli BL21 A1; BL21, 20 h)	MIC E. coli 045-849 SENTRY (E. coli 045-849 SENTRY)	MIC E. coli SEQ 102ATCC # BAA-4 57 (E. coli ATCC BAA-457)	MIC E. coli D31 J. Wilson (E. coli D31 J. Wilson)	MIC K. pneumoniae 012-3131 (K. pneumoniae 012-3131)	MIC K. pneumoniae ATCC 27799 (K. pneumoniae ATCC 27799; ATCC 27799)	MIC K. pneumoniae K6 ATCC 700603 ([3]; ATCC 700603)	MIC K. pneumoniae ATCC 27799 (K. pneumoniae ATCC 27799; ¼ Muller-Hinton medium)	MIC K. pneumoniae K6 ATCC 700603 ([3]; ¼ Muller-Hinton medium)
CC[C@H](C)[C@H](NC(=O)[C@@H]1C[C@@H](O)CN1C(=O)[C@H](CCCNC(=N)N)NC(=O)[C@@H]1CCCN1C(=O)[C@@H]1CCCN1C(=O)[C@H](CCCNC(=N)N)NC(=O)[C@@H]1CCCN1C(=O)[C@H](CCCNC(=N)N)NC(=O)[C@@H]1CCCN1C(=O)[C@H](CC(C)C)NC(=O)[C@H](Cc1ccc(O)cc1)NC(=O)[C@@H]1CCCN1C(=O)[C@@H]1CCCN1C(=O)[C@H](CCCCN)NC(=O)[C@H](CC(=O)O)NC(=O)[C@@H](N)C(C)C)C(=O)N[C@@H](Cc1ccc(O)cc1)C(=O)N[C@@H](CC(N)=O)C(=O)N[C@@H](CCCN)C(N)=O [SEQ ID NO. 63] (H-VDKPPYLPRPRPPR[Hyp]IYN[Orn]-NH2)	4 µg/mL (≈ 1.74 µM)	4 µg/mL (≈ 1.74 µM)	8 µg/mL (≈ 3.47 µM)	1 to 4 µg/mL	> 6 h	> 6 h	–	–	–	–	–	–	–	–	–
CC[C@H](C)[C@H](NC(=O)[C@@H]1C[C@@H](O)CN1C(=O)[C@H](CCCNC(=N)N)NC(=O)[C@@H]1C[C@@H](O)CN1C(=O)[C@@H]1CCCN1C(=O)[C@H](CCCNC(=N)N)NC(=O)[C@@H]1CCCN1C(=O)[C@H](CCCNC(=N)N)NC(=O)[C@@H]1CCCN1C(=O)[C@H](CC(C)C)NC(=O)[C@H](Cc1ccc(O)cc1)NC(=O)[C@@H]1CCCN1C(=O)[C@@H]1CCCN1C(=O)[C@H](CCCCN)NC(=O)[C@H](CC(=O)O)NC(=O)[C@@H](N)C(C)C)C(=O)N[C@@H](Cc1ccc(O)cc1)C(=O)N[C@@H](CC(N)=O)C(=O)N[C@@H](CCCN)C(N)=O [SEQ ID NO. 108] (H-VDKPPYLPRPRP[Hyp]R[Hyp]IYN[Orn]-NH2)	–	2 µg/mL (≈ 0.862 µM)	–	1 to 4 µg/mL	–	–	–	–	–	–	–	–	–	–	–
CC[C@H](C)[C@H](NC(=O)[C@H](Cc1ccc(O)cc1)NC(=O)[C@H](CC(N)=O)NC(=O)[C@@H](N)CCCN)C(=O)N[C@@H](CCCN)C(=O)N[C@@H](CCCNC(=N)N)C(=O)N1CCC[C@H]1C(=O)N1CCC[C@H]1C(=O)N[C@@H](CCCNC(=N)N)C(=O)N1CCC[C@H]1C(=O)N[C@@H](CCCNC(=N)N)C(=O)N1CCC[C@H]1C(=O)N[C@@H](CC(C)C)C(=O)N[C@@H](Cc1ccc(O)cc1)C(=O)N1CCC[C@H]1C(=O)N1CCC[C@H]1C(=O)N[C@@H](CCCCN)C(=O)N[C@@H](CC(=O)O)C(=O)N[C@H](C(N)=O)C(C)C [SEQ ID NO. 113, ONYIORPPRPRPLYPPKDV-NH2] (H-[Orn]NYI[Orn]RPPRPRPLYPPKDV-NH2)	–	–	–	1 to 4 µg/mL	–	–	–	–	–	–	–	–	–	–	–
CC[C@H](C)[C@H](NC(=O)[C@H](Cc1ccc(O)cc1)NC(=O)[C@H](CC(N)=O)NC(=O)[C@@H](N)CCCN)C(=O)N1C[C@H](O)C[C@H]1C(=O)N[C@@H](CCCNC(=N)N)C(=O)N1CCC[C@H]1C(=O)N1CCC[C@H]1C(=O)N[C@@H](CCCNC(=N)N)C(=O)N1CCC[C@H]1C(=O)N[C@@H](CCCNC(=N)N)C(=O)N1CCC[C@H]1C(=O)N[C@@H](CC(C)C)C(=O)N[C@@H](Cc1ccc(O)cc1)C(=O)N1CCC[C@H]1C(=O)N1CCC[C@H]1C(=O)N[C@@H](CCCCN)C(=O)N[C@@H](CC(=O)O)C(=O)N[C@H](C(N)=O)C(C)C [SEQ ID NO. 114] (H-[Orn]NYI[Hyp]RPPRPRPLYPPKDV-NH2)	–	–	–	1 to 4 µg/mL	–	–	–	–	–	–	–	–	–	–	–
CC[C@H](C)[C@H](NC(=O)[C@H](CCCNC(=N)N)NC(=O)[C@H](CCCNC(=N)N)NC(=O)[C@@H]1CCCN1C(=O)[C@@H]1CCCN1C(=O)[C@H](CCCNC(=N)N)NC(=O)[C@@H]1CCCN1C(=O)[C@H](CCCNC(=N)N)NC(=O)[C@@H]1C[C@@H](O)CN1C(=O)[C@H](CC(C)C)NC(=O)[C@H](Cc1ccc(O)cc1)NC(=O)[C@@H]1CCCN1C(=O)[C@@H]1CCCN1C(=O)[C@H](CCCCN)NC(=O)[C@H](CC(=O)O)NC(=O)[C@@H](N)C(C)C)C(=O)N[C@@H](Cc1ccc(O)cc1)C(=O)N[C@@H](CC(N)=O)C(=O)N[C@@H](CCCNC(=N)N)C(=O)O [compound 21] (H-VDKPPYL[Hyp]RPRPPRRIYNR-OH)	–	–	16 µg/mL (≈ 6.65 µM)	–	–	–	16 µg/mL (≈ 6.65 µM)	16 µg/mL (≈ 6.65 µM)	64 µg/mL (≈ 26.6 µM)	32 µg/mL (≈ 13.3 µM)	32 µg/mL (≈ 13.3 µM)	128 µg/mL (≈ 53.2 µM)	64 µg/mL (≈ 26.6 µM)	–	–
CC[C@H](C)[C@H](NC(=O)[C@H](CCCNC(=N)N)NC(=O)[C@H](CCCNC(=N)N)NC(=O)[C@@H]1CCCN1C(=O)[C@@H]1CCCN1C(=O)[C@H](CCCNC(=N)N)NC(=O)[C@@H]1CCCN1C(=O)[C@H](CCCNC(=N)N)NC(=O)[C@@H]1CCCN1C(=O)[C@H](CC(C)C)NC(=O)[C@H](Cc1ccc(O)cc1)NC(=O)[C@@H]1CCCN1C(=O)[C@@H]1C[C@@H](O)CN1C(=O)[C@H](CCCCN)NC(=O)[C@H](CC(=O)O)NC(=O)[C@@H](N)C(C)C)C(=O)N[C@@H](Cc1ccc(O)cc1)C(=O)N[C@@H](CC(N)=O)C(=O)N[C@@H](CCCNC(=N)N)C(=O)O [compound 23] (H-VDK[Hyp]PYLPRPRPPRRIYNR-OH)	–	–	16 µg/mL (≈ 6.65 µM)	–	–	–	8 µg/mL (≈ 3.32 µM)	8 µg/mL (≈ 3.32 µM)	32 µg/mL (≈ 13.3 µM)	8 µg/mL (≈ 3.32 µM)	16 µg/mL (≈ 6.65 µM)	64 µg/mL (≈ 26.6 µM)	32 µg/mL (≈ 13.3 µM)	–	–
H-VDKPPYLPRPKPPRRIYNNR-OH [compound 5]	–	–	16 µg/mL	–	–	–	16 µg/mL	16 µg/mL	128 µg/mL	64 µg/mL	64 µg/mL	–	–	128 µg/mL	128 µg/mL
H-VDKPPYLPRPRPPRPIYNR-OH [compound 20]	–	–	16 µg/mL	–	–	–	8 µg/mL	8 µg/mL	32 µg/mL	4 µg/mL	64 µg/mL	64 µg/mL	128 µg/mL	–	–
H-VDKPPYLPRPRPPRRIYNRN-OH [compound 16]	–	–	16 µg/mL	–	–	–	8 µg/mL	4 µg/mL	32 µg/mL	32 µg/mL	32 µg/mL	128 µg/mL	64 µg/mL	–	–
